Results: patent US9676760B2, “Fused heterocyclic compounds as ion channel modulators” (Gilead Sciences, Inc., priority 2011, dated 2017)

target: wild-type human cardiac sodium channel, hNav1.5 (Homo sapiens, UniProt Q14524); assay: Late INa screening assay (QPatch whole cell patch clamp, HEK293); format: cell-based; conditions: HEK293, percent block of late INa; compound at 1 μM; 10 μM Tefluthrin; read-out: Late INa 1 μM
Method in brief: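 HEK293 stably expressing hNav1.5 without beta subunits, recorded at 23-25° C. Late current was induced by 10 μM tefluthrin. Cells were depolarized from −120 mV to −20 mV for 250 ms at 0.1 Hz. Compounds were tested at 1 μM in extracellular solution, with baseline taken in 0Na-ECF; output is percent block of late INa.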

wild-type human cardiac sodium channel, hNav1.5, sequence (Q14524 whole entry): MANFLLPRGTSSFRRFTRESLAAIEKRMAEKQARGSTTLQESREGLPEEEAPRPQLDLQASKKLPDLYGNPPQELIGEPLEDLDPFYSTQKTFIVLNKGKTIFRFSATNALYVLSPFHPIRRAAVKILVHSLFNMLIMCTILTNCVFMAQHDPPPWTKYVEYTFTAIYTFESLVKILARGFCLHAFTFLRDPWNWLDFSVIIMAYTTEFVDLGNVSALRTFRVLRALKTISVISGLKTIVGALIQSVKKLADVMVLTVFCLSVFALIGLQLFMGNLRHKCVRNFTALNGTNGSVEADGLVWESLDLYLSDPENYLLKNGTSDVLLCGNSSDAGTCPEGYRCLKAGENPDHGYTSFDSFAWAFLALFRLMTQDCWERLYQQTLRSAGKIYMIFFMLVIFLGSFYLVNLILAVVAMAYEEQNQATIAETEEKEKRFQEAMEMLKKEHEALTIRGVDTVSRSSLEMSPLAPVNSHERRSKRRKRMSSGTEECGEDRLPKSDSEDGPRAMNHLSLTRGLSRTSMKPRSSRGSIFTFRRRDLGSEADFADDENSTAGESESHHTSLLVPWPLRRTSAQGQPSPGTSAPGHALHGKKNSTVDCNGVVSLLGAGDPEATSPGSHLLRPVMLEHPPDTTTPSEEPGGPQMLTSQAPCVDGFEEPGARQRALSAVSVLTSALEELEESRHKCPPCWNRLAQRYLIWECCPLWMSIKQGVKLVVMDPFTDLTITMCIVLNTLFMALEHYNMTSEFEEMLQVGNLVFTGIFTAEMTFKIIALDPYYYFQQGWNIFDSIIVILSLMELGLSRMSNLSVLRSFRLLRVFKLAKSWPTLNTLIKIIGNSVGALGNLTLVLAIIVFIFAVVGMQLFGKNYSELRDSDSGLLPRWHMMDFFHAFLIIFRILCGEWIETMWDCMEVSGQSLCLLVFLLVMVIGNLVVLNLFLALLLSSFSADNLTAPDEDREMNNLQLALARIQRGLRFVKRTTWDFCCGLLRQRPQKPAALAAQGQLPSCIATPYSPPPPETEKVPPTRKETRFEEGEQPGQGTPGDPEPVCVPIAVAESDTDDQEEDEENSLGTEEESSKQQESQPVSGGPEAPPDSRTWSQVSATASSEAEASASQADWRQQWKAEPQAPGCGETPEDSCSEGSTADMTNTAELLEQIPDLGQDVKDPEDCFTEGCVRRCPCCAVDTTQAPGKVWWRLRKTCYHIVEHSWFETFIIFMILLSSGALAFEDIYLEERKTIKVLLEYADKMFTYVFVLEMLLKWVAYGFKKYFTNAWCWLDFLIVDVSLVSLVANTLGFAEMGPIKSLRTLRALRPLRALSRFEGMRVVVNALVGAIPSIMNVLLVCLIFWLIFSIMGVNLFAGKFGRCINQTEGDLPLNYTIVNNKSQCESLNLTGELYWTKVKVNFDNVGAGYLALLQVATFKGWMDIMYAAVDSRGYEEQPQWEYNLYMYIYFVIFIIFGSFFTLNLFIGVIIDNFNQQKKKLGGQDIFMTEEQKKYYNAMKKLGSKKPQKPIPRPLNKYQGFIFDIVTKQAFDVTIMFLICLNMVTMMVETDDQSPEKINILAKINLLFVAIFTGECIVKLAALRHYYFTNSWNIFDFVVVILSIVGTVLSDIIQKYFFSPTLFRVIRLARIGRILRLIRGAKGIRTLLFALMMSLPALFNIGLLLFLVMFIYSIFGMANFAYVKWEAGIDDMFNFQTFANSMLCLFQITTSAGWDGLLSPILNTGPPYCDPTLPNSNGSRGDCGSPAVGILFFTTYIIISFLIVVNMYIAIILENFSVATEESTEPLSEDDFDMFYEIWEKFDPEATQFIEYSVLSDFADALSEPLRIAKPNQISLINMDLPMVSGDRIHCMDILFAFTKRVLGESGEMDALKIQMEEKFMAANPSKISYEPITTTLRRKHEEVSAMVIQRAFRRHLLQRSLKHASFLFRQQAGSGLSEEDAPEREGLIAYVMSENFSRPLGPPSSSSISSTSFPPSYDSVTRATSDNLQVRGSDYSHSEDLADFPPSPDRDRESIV

Compared with Cn1cncc1C(=O)N1CCOc2ccc(-c3ccc(C(F)(F)F)cc3)cc2C1 [III-32, (1-methyl-1H-imidazol-5-yl)(7-(4-(trifluoromethyl)phenyl)-2,3-dihydrobenzo[f][1,4]oxazepin-4(5H)-yl)methanone], Cn1ccnc1C(=O)N1CCOc2ccc(-c3ccc(C(F)(F)F)cc3)cc2C1 [III-37, (1-methyl-1H-imidazol-2-yl)(7-(4-(trifluoromethyl)phenyl)-2,3-dihydrobenzo[f][1,4]oxazepin-4(5H)-yl)methanone] is higher in inhibition at 1 µM: 22% for the first, 41% for the second.

First: O=C(c1ncc[nH]1)N1CCOc2ccc(-c3ccc(C(F)(F)F)cc3)cc2C1 [III-33, (1H-imidazol-2-yl)(7-(4-(trifluoromethyl)phenyl)-2,3-dihydrobenzo[f][1,4]oxazepin-4(5H)-yl)methanone]
Second: O=C(c1nc[nH]n1)N1CCOc2ccc(-c3ccc(C(F)(F)F)cc3)cc2C1 [III-50, (1H-1,2,4-triazol-3-yl)(7-(4-(trifluoromethyl)phenyl)-2,3-dihydrobenzo[f][1,4]oxazepin-4(5H)-yl)methanone]
The inhibition at 1 µM of the first is higher: 37% for the first, 24% for the second.

Going from C[C@@H]1CN(C(=O)c2ncccn2)Cc2cc(-c3ccc(OC(F)(F)F)cc3)ccc2O1 [III-38, (R)-(2-methyl-7-(4-(trifluoromethoxy)phenyl)-2,3-dihydrobenzo[f][1,4]oxazepin-4(5H)-yl)(pyrimidin-2-yl)methanone] to Cc1cc(C(=O)N2CCOc3ccc(-c4ccc(OC(F)(F)F)cc4)cc3C2)nn1C [III-58, (1,5-dimethyl-1H-pyrazol-3-yl)(7-(4-(trifluoromethoxy)phenyl)-2,3-dihydrobenzo[f][1,4]oxazepin-4(5H)-yl)methanone], the inhibition at 1 µM falls from 28% to 26%.

CC(C)(C)OC(=O)N1CCn2cc(C(=O)N3CCOc4ccc(-c5ccc(C(F)(F)F)cc5)cc4C3)nc2C1 [III-40, tert-butyl 2-(7-(4-(trifluoromethyl)phenyl)-2,3,4,5-tetrahydrobenzo[f][1,4]oxazepine-4-carbonyl)-5,6-dihydroimidazo[1,2-a]pyrazine-7(8H)-carboxylate] and O=S1(=O)c2cc(-c3ccc(C(F)(F)F)cc3)ccc2OCCN1Cc1ncccn1 [IX-2, 2-((pyrimidin-2-yl)methyl)-8-(4-(trifluoromethyl)phenyl)-3,4-dihydro-2H-benzo[b][1,4,5]oxathiazepin-sulfone] are the same in inhibition at 1 µM: 22% for the first, 22% for the second.

Going from O=C1c2ccc(-c3cccc(C(F)(F)F)c3)cc2OCCN1Cc1ncccn1 [IV-4, 4-(pyrimidin-2-ylmethyl)-8-(3-(trifluoromethyl)phenyl)-3,4-dihydrobenzo[f][1,4]oxazepin-5(2H)-one] to O=C1c2cc(-c3ccc(C(F)(F)F)s3)ccc2OCCN1Cc1ncccn1 [VI-37, 4-(pyrimidin-2-ylmethyl)-7-(5-(trifluoromethyl)thiophen-2-yl)-3,4-dihydrobenzo[f][1,4]oxazepin-5(2H)-one], the inhibition at 1 µM rises from 14% to 48%.

Compared with CC(C)(C)Oc1cc(-c2ccc3c(c2)C(=O)N(Cc2ccccn2)CCO3)ccn1 [VI-4, 7-(2-tert-butoxypyridin-4-yl)-4-(pyridin-2-ylmethyl)-3,4-dihydrobenzo[f][1,4]oxazepin-5(2H)-one], CC(C)c1nc(-c2ccc3c(c2)C(=O)N(Cc2ccccn2)CCO3)cs1 [VI-30, 7-(2-isopropylthiazol-4-yl)-4-(pyridin-2-ylmethyl)-3,4-dihydrobenzo[f][1,4]oxazepin-5(2H)-one] is higher in inhibition at 1 µM: 36% for the first, 40% for the second.

Compared with O=C1c2cc(-c3cnc(N4CCCCC4)nc3)ccc2OCCN1Cc1ncccn1 [VI-11, 7-(2-(piperidin-1-yl)pyrimidin-5-yl)-4-(pyrimidin-2-ylmethyl)-3,4-dihydrobenzo[f][1,4]oxazepin-5(2H)-one], O=C1c2cc(-c3ccc(C4CC4)s3)ccc2OCCN1Cc1ncccn1 [VI-36, 7-(5-cyclopropylthiophen-2-yl)-4-(pyrimidin-2-ylmethyl)-3,4-dihydrobenzo[f][1,4]oxazepin-5(2H)-one] is higher in inhibition at 1 µM: 19% for the first, 47% for the second.

Compared with O=C1c2cc(-c3ccc(C(F)(F)F)cn3)ccc2OCCN1Cc1ccccn1 [VI-26, 4-(pyridin-2-ylmethyl)-7-(5-(trifluoromethyl)pyridin-2-yl)-3,4-dihydrobenzo[f][1,4]oxazepin-5(2H)-one], O=C1c2cc(CCc3ccc(C(F)(F)F)cc3)ccc2OCCN1Cc1ccccn1 [VIII-7, 4-(pyridin-2-ylmethyl)-7-(4-(trifluoromethyl)phenethyl)-3,4-dihydrobenzo[f][1,4]oxazepin-5(2H)-one] is higher in inhibition at 1 µM: 28% for the first, 59% for the second.

Going from O=C1c2cc(C#Cc3ccccc3)ccc2OCCN1Cc1ncccn1 [VIII-5, 7-(phenylethynyl)-4-(pyrimidin-2-ylmethyl)-3,4-dihydrobenzo[f][1,4]oxazepin-5(2H)-one] to O=C1c2cc(Nc3ccc(C(F)(F)F)cc3)ccc2OCCN1Cc1ncccn1 [XIII-3, 4-(pyrimidin-2-ylmethyl)-7-(4-(trifluoromethyl)phenylamino)-3,4-dihydrobenzo[f][1,4]oxazepin-5(2H)-one], the inhibition at 1 µM falls from 32% to 17%.

Going from O=C1c2cc(CCc3ccc(C(F)(F)F)cc3)ccc2OCCN1Cc1ncccn1 [VIII-8, 4-(pyrimidin-2-ylmethyl)-7-(4-(trifluoromethyl)phenethyl)-3,4-dihydrobenzo[f][1,4]oxazepin-5(2H)-one] to O=C1c2cc(CCc3ccc(C(F)(F)F)cc3)ccc2OCCN1Cc1ncccc1F [VIII-9, 4-((3-fluoropyridin-2-yl)methyl)-7-(4-(trifluoromethyl)phenethyl)-3,4-dihydrobenzo[f][1,4]oxazepin-5(2H)-one], the inhibition at 1 µM rises from 47% to 50%.

Going from O=C1c2cc(/C=C/c3ccc(C(F)(F)F)cc3)ccc2OCCN1Cc1ccccc1 [VIII-10, (E)-4-benzyl-7-(4-(trifluoromethyl)styryl)-3,4-dihydrobenzo[f][1,4]oxazepin-5(2H)-one] to O=C1c2cc(CCc3ccc(C(F)(F)F)cc3)ccc2OCCN1Cc1ccccc1 [VIII-11, 4-benzyl-7-(4-(trifluoromethyl)phenethyl)-3,4-dihydrobenzo[f][1,4]oxazepin-5(2H)-one], the inhibition at 1 µM rises from 25% to 42%.

First: O=C1c2cc(-c3ccc(OC(F)(F)F)cc3)ncc2OCCN1Cc1ncccn1 [XII-5, 4-(pyrimidin-2-ylmethyl)-7-(4-(trifluoromethoxy)phenyl)-3,4-dihydropyrido[4,3-f][1,4]oxazepin-5(2H)-one]
Second: COc1ccnc(CN2CCOc3cnc(-c4ccc(OC(F)(F)F)cc4)cc3C2=O)n1 [XII-14, 4-((4-methoxypyrimidin-2-yl)methyl)-7-(4-(trifluoromethoxy)phenyl)-3,4-dihydropyrido[4,3-f][1,4]oxazepin-5(2H)-one]
The inhibition at 1 µM of the first is lower: 25% for the first, 26% for the second.

Going from O=C1c2cc(-c3ccc(OC(F)(F)F)cc3)ncc2OCCN1CC1CC1 [XII-9, 4-(cyclopropylmethyl)-7-(4-(trifluoromethoxy)phenyl)-3,4-dihydropyrido[4,3-f][1,4]oxazepin-5(2H)-one] to O=C1c2cc(Nc3ccc(OC(F)(F)F)cc3)ccc2OCCN1Cc1ncccn1 [XIII-1, 4-(pyrimidin-2-ylmethyl)-7-(4-(trifluoromethoxy)phenylamino)-3,4-dihydrobenzo[f][1,4]oxazepin-5(2H)-one], the inhibition at 1 µM falls from 22% to 16%.

Compared with O=C1c2cc(Oc3ccc(OC(F)(F)F)cc3)ccc2OCCN1Cc1ncccn1 [XIII-2, 4-(pyrimidin-2-ylmethyl)-7-(4-(trifluoromethoxy)phenoxy)-3,4-dihydrobenzo[f][1,4]oxazepin-5(2H)-one], CN(c1ccc(OC(F)(F)F)cc1)c1ccc2c(c1)C(=O)N(Cc1ncccn1)CCO2 [XIII-10, 7-(methyl(4-(trifluoromethoxy)phenyl)amino)-4-(pyrimidin-2-ylmethyl)-3,4-dihydrobenzo[f][1,4]oxazepin-5(2H)-one] is higher in inhibition at 1 µM: 19% for the first, 22% for the second.
